Measured values taken from US10946012B2, “Methods for inducing tumor regression, inhibiting tumor growth, and inducing apoptosis in breast tumors with geranylgeranyltransferase I inhibitors” (H. Lee Moffitt Cancer Center and Research Institute, Inc., priority 2009, dated 2021).

What was measured:
[1] = system: MDA-MB-468 breast cancer cells; test: Trypan Blue exclusion assay (proliferation, cell death) in MDA-MB-468 cells; format: cell-based, human
Description: (§1) Human MDA-MB-468 and MDA-MB-231 breast cancer cells and murine NIH 3T3 cells were obtained from the ATCC and cultured in DMEM medium. Human SK-Br3 and BT-474 breast cancer cells (ATCC) were cultured in McCoy's 5a medium and Hybri-Care medium, respectively. Mouse embryonic fibroblast (MEF) cells from p27 wild-type and p27 null mice were grown in DMEM. All media were supplemented with 10% fetal calf serum, 10 units/ml penicillin, and 10 μg/ml streptomycin. Subconfluent cells were treated with different concentrations of GGTI, FTI or DMSO vehicle for specific time periods. After treatment, cells were harvested by trypsinization.
Pre-designed siRNA to p27 (Cat #118714) and the negative control (Cat #4611) were purchased from Ambion (Austin, Tex.). Twenty-four hours before transfection, MDA-MB-468 cells were plated onto twelve-well plates in fresh DMEM medium containing 10% FBS and no antibiotics. Transient transfection of siRNA was carried out using Oligofectamine reagent (Invitrogen, Carlsbad, Calif.), following the manufacturer's instructions. In brief, 5 nM of p27 siRNA or control siRNA were mixed with Opti-MEM medium (Invitrogen) in such a way so that the total volume went to 90 μl, and then complexed with a mixture of 2 μl of Oligofectamine and 8 μl Opti-MEM; the total volume of RNA:Oligofectamine complex was 100 μl. The RNA:Oligofectamine complex was then incubated for 20 min at room temperature before adding to the cells. Before transfection, the old medium was discarded, cells were washed once with fresh Opti-MEM and 400 μl of fresh Opti-MEM placed into each well before adding the RNA:Oligofectamine complex to each well. The final diluted volume on each well was 500 μl. After 8 h, 500 μl DMEM containing 30% FBS was added to each well and cells were further incubated for 40 h.
(§2) Adherent cells were harvested by trypsinization and diluted with 0.4% Trypan Blue dye and counted on a hemacytometer. Cells excluding the dye were scored as live cells, whereas cells absorbing the dye were scored as dead cells. Cell proliferation was determined by dividing the number of live cells in the treated sample by the number of live cells in the control, and the degree of cell death was expressed as percentage of dead cells of the total cell number.

p27 null MEFs = test: Trypan Blue exclusion assay in p27 null MEFs; format: cell-based, mouse; details: 50 μM, 72 h
Description: as §1, §2

[2] = system: MDA-MB-231 breast cancer tumors; test: Anti-tumor activity in the nude mouse tumor xenograft model; format: in vivo, nude mice; details: 100 mg/kg daily i.p.
Description: Nude mice (nu/nu, Charles River, Wilmington, Mass.) were maintained in accordance with the Institutional Animal Care and Use Committee (IACUC) procedures and guidelines. MDA-MB-231 cells were harvested via trypsinization, pelleted at 805×g for 5 min, and re-suspended in a 50:50 mixture of sterile PBS and Matrigel (BD Biosciences) at 10×10^6 cells per 100 μl. A volume of 100 μl (˜10×10^6 cells) was injected orthotopically into the upper mammary fat pads of nude mice. The tumor xenografts were monitored by electronic caliper measurements and tumor volume (V) was calculated using the formula V=W^2L/2, where width (W) is […]. When the tumors reached ˜100 mm^3, the animals were randomized and injected intraperiteoneally daily with vehicle (70% DMSO), or 100 mg/kg GGTI-2417 or GGTI-2418, or every third day with GGTI-2418 (200 mg/kg. Tumors were measured every third day for 12-18 days.

In the case of `COC(=O)[C@H](CC(C)C)NC(=O)N1CCN(Cc2nc[nH]c2C)C(=O)[C@@H]1Cc1ccccc1` [GGTI-2417], the “tumor cell death in the presence of p27 siRNA” value ([1]; 5 nM p27 siRNA, 50 μM GGTI-2417 or 1 μM taxol) is reported as “unable to induce tumor cell death”, the tumor cell death ([1]; 50 μM, absence of p27 siRNA, vehicle 10.3%) is reported as 37.2% and the IC50 ([1]; MDA-MB-468, 48 h, read-out: IC50, inhibition of cell proliferation) is reported as roughly 4 µM. The inhibition of proliferation (p27 null MEFs; MEFs lacking p27) was 61.6±8.1%, the cell death (p27 null MEFs; p27 null MEFs, basal 27.5±2.1%) was “did not increase the number of dead cells” and the tumor growth inhibition [2] was 76%.
